One block for each compound: values may come before it.
Experiments:
Caco-2 = test: Cytotoxicity against human Caco2 cells by MTT assay; type: functional, cell-based
[1] = target: T1, NEDD8-activating enzyme E1 catalytic subunit (Homo sapiens, UniProt Q8TBC4); test: Inhibition of NAE (unknown origin)-catalyzed NEDD8-Ubcl2 intermediate formation by densitometric analysis
T1 sequence (Q8TBC4 whole entry): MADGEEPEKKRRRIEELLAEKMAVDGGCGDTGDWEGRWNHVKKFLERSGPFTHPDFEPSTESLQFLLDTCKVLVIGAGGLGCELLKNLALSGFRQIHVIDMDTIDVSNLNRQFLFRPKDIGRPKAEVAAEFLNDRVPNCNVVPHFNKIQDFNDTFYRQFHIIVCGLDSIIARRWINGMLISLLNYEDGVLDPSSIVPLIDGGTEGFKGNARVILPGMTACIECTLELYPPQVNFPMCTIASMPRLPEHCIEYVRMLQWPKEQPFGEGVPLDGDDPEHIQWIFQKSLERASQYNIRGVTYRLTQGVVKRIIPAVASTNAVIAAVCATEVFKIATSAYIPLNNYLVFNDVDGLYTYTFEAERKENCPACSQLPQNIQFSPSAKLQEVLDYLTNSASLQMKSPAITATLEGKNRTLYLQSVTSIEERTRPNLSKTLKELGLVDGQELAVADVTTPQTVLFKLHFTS

[2] = Inhibition of recombinant yeast UAE-catalyzed UAE-Ub intermediate formation after 15 mins by densitometric analysis; design: species or system Saccharomyces cerevisiae
MCF7 = test: Cytotoxicity against human MCF7 cells after 48 hrs by WST8 assay; type: functional, cell-based; settings: MCF7, 48 h
[3] = target: T2, NEDD8-activating enzyme E1 regulatory subunit (Homo sapiens, UniProt Q13564); test: Inhibition of NAE (unknown origin) assessed as decrease in NEDD8-Ubcl2 formation
T2 sequence (Q13564 whole entry): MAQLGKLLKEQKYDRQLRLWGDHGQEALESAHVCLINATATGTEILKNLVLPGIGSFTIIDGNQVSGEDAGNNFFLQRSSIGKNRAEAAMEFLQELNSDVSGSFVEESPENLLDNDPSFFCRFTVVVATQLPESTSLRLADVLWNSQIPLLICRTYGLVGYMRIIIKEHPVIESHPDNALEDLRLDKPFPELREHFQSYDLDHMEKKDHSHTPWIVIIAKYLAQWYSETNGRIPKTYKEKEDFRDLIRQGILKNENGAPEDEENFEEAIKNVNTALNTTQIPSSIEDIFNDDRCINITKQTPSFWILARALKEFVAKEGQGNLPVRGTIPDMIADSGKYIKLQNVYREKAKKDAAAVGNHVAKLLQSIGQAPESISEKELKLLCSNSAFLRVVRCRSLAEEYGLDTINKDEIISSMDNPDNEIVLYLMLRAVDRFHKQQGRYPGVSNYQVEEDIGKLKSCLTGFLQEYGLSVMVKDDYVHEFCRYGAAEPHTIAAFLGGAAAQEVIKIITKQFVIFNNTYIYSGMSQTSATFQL

[4] = target: T1, NEDD8-activating enzyme E1 catalytic subunit; test: Inhibition of NAE (unknown origin)-catalyzed transthiolation of NEDD8 from NAE to Ubc12
[5] = target: T3, SUMO-activating enzyme subunit 1 (Homo sapiens, UniProt Q9UBE0); test: Inhibition of human SAE by fluorescence assay
T3 sequence (Q9UBE0 whole entry): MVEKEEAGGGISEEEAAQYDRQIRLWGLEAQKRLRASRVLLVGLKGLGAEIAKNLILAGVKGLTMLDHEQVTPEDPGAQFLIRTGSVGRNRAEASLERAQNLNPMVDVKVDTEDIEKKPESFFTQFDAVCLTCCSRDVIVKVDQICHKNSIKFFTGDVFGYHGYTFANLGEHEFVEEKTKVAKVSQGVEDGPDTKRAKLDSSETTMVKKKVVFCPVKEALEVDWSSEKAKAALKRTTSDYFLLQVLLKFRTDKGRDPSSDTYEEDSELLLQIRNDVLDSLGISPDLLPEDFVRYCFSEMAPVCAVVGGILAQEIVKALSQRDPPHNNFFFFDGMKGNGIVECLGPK

[6] = Inhibition of N-terminal GST-tagged human UAE-catalyzed UAE-Ub thioester intermediate formation expressed in HI5 insect cells after 15 mins by SDS-PAGE analysis
[7] = target: T3, SUMO-activating enzyme subunit 1; test: Inhibition of recombinant SAE1(unknown origin)-mediated SUMOylation of RanGAP1-C2
[8] = Inhibition of FLAG-tagged human recombinant UAE-catalyzed UAE-Ub thioester intermediate formation immunoblotting analysis
[9] = target: T3, SUMO-activating enzyme subunit 1; test: Inhibition of recombinant His-tagged SAE1(unknown origin)-mediated SUMOylation of RanGAP1-C2 by immunoblotting analysis

IC50 [1]: 0.8 µM
Structure (SMILES): O=C(O)CNC(=O)CNC(=O)COc1ccc2nc3n(c(=O)c2c1)CCC3
IC50 (Caco-2): 10 µM

IC50 [2]: 3.5 µM
Structure (SMILES): CCCC/C=C/[C@]12C(=O)[C@H]3O[C@H]3[C@H](O)[C@H]1[C@H]1C(=C[C@@H]2CCCC)C(=O)[C@H]2O[C@H]2[C@@H]1O
IC50 (MCF7): 1 µM

IC50 [3]: 5 µM
IC50 [4]: 20 µM
Structure (SMILES): O=c1cc(-c2ccc(O)cc2)oc2cc(O)c(-c3c(O)cc4oc(-c5ccc(O)cc5)cc(=O)c4c3O)c(O)c12

IC50 [2]: 9.4 µM
Structure (SMILES): C/C=C/[C@]12C(=O)[C@H]3O[C@H]3[C@H](O)[C@H]1[C@H]1C(=C[C@@H]2C)C(=O)[C@H]2O[C@H]2[C@@H]1O
IC50 (MCF7): 5.4 µM

Structure (SMILES): CCCCCCCC(=O)SCC/C=C/[C@@H]1CC(=O)NCc2nc(cs2)C2=N[C@@](C)(CS2)C(=O)N[C@@H](C(C)C)C(=O)O1 [LARGAZOLE]
IC50 [5]: 450 µM
IC50 [6]: 29 µM

IC50 [7]: 3 µM
Structure (SMILES): CCCCCC/C=C\CCCCCCCc1cccc(O)c1C(=O)O [GINGKOLIC ACID]

IC50 [2]: 90 µM
Structure (SMILES): CCCCCCCC/C=C/[C@]12C(=O)[C@H]3O[C@H]3[C@H](O)[C@H]1[C@H]1C(=C[C@@H]2CCCCCCCC)C(=O)[C@H]2O[C@H]2[C@@H]1O
IC50 (MCF7): 3.6 µM

IC50 [8]: 50 µM
Structure (SMILES): C[C@@H](CC(=O)NC(=O)c1coc(/C=C/CCCCCCCCC(=O)O)cc1=O)C(=O)O [HIMEIC ACID A]

IC50 [7]: 2.2 µM
Structure (SMILES): CCCCCCCCCCCCCCCc1cccc(O)c1C(=O)O [ANACARDIC ACID]

Structure (SMILES): C[C@@H]1O[C@@H](O[C@H]2[C@H](O)C[C@H](c3ccc4c(c3O)C(=O)C3=C(C4=O)[C@@]4(O[C@H]5CC[C@H](O)[C@H](C)O5)C(=O)C[C@](C)(O)C[C@@]4(O)C=C3)O[C@@H]2C)CC[C@@H]1O[C@H]1C[C@@H](O)[C@H](O)[C@@H](C)O1 [KERRIAMYCIN B]
IC50 [9]: 11.7 µM

Source: ChEMBL document CHEMBL2321716, “Exploring a new frontier in cancer treatment: targeting the ubiquitin and ubiquitin-like activating enzymes” (J Med Chem, 2013)
